Data published in PubChem BioAssay (NCI).
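Results reflect a 48-hour exposure of cells in 96-well plates to compound at five concentrations. Here, GI50 denotes the concentration required for 50% inhibition of growth. Definition used: TGI = concentration required for complete inhibition of growth.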

Key:
Assay in all cases: NCI anticancer screen, dose series, 48 h
NCI-H460 lung = system: NCI-H460 lung
SF-268 CNS = system: SF-268 CNS
HL-60(TB) leukemia = system: HL-60(TB) leukemia
SR leukemia = system: SR leukemia
U251 CNS = system: U251 CNS
SK-MEL-5 melanoma = system: SK-MEL-5 melanoma
COLO 205 colon = system: COLO 205 colon
MDA-MB-435 = system: MDA-MB-435
SK-MEL-2 melanoma = system: SK-MEL-2 melanoma
NCI-H226 lung = system: NCI-H226 lung
SK-MEL-28 melanoma = system: SK-MEL-28 melanoma
RXF 393 renal = system: RXF 393 renal
A549 NSCLC = system: A549 NSCLC
OVCAR-5 ovarian = system: OVCAR-5 ovarian
HCC-2998 colon = system: HCC-2998 colon
MCF7 breast = system: MCF7 breast
SF-295 CNS = system: SF-295 CNS
NCI-H23 lung = system: NCI-H23 lung
BT-549 breast = system: BT-549 breast
NCI/ADR-RES ovarian = system: NCI/ADR-RES ovarian
UACC-257 melanoma = system: UACC-257 melanoma
RPMI-8226 leukemia = system: RPMI-8226 leukemia
SNB-19 CNS = system: SNB-19 CNS
HT29 colon = system: HT29 colon
HCT-15 colon = system: HCT-15 colon
K-562 leukemia = system: K-562 leukemia
OVCAR-3 ovarian = system: OVCAR-3 ovarian
NCI-H522 lung = system: NCI-H522 lung
SNB-75 CNS = system: SNB-75 CNS
SW-620 colon = system: SW-620 colon
OVCAR-4 ovarian = system: OVCAR-4 ovarian
LOX IMVI melanoma = system: LOX IMVI melanoma
786-0 renal = system: 786-0 renal
HOP-62 NSCLC = system: HOP-62 NSCLC
HCT-116 colon = system: HCT-116 colon
IGROV1 ovarian = system: IGROV1 ovarian
MALME-3M melanoma = system: MALME-3M melanoma
MOLT-4 leukemia = system: MOLT-4 leukemia
M14 melanoma = system: M14 melanoma
EKVX NSCLC = system: EKVX NSCLC
UO-31 renal = system: UO-31 renal
HS 578T breast = system: HS 578T breast
TK-10 renal = system: TK-10 renal
CAKI-1 renal = system: CAKI-1 renal
MDA-MB-231 breast = system: MDA-MB-231 breast
OVCAR-8 ovarian = system: OVCAR-8 ovarian
KM12 colon = system: KM12 colon
CCRF-CEM leukemia = system: CCRF-CEM leukemia
SK-OV-3 ovarian = system: SK-OV-3 ovarian
UACC-62 melanoma = system: UACC-62 melanoma
DU-145 prostate = system: DU-145 prostate
SF-539 CNS = system: SF-539 CNS
SN12C renal = system: SN12C renal
PC-3 prostate = system: PC-3 prostate
ACHN renal = system: ACHN renal

SMILES: COC(=O)c1ccc2c(c1)C(=O)c1c-2n(CCCN=[N+]=[N-])c(=O)c2cc(OC)c(OC)cc12
- GI50 (NCI-H460 lung): > 100 µM
- TGI (NCI-H460 lung): > 100 µM
- GI50 (SF-268 CNS): > 100 µM
- TGI (SF-268 CNS): > 100 µM
- GI50 (HL-60(TB) leukemia): 91.9 µM
- TGI (HL-60(TB) leukemia): > 100 µM
- GI50 (SR leukemia): 3.57 µM
- TGI (SR leukemia): 56 µM
- GI50 (U251 CNS): > 100 µM
- TGI (U251 CNS): > 100 µM
- GI50 (SK-MEL-5 melanoma): > 100 µM
- TGI (SK-MEL-5 melanoma): > 100 µM
- GI50 (COLO 205 colon): > 100 µM
- TGI (COLO 205 colon): > 100 µM
- GI50 (MDA-MB-435): > 100 µM
- TGI (MDA-MB-435): > 100 µM
- GI50 (SK-MEL-2 melanoma): > 100 µM
- TGI (SK-MEL-2 melanoma): > 100 µM
- GI50 (NCI-H226 lung): > 100 µM
- TGI (NCI-H226 lung): > 100 µM
- GI50 (SK-MEL-28 melanoma): > 100 µM
- TGI (SK-MEL-28 melanoma): > 100 µM
- GI50 (RXF 393 renal): > 100 µM
- TGI (RXF 393 renal): > 100 µM
- GI50 (A549 NSCLC): > 100 µM
- TGI (A549 NSCLC): > 100 µM
- GI50 (OVCAR-5 ovarian): > 100 µM
- TGI (OVCAR-5 ovarian): > 100 µM
- GI50 (HCC-2998 colon): > 100 µM
- TGI (HCC-2998 colon): > 100 µM
- GI50 (MCF7 breast): > 100 µM
- TGI (MCF7 breast): > 100 µM
- GI50 (SF-295 CNS): > 100 µM
- TGI (SF-295 CNS): > 100 µM
- GI50 (NCI-H23 lung): 15.6 µM
- TGI (NCI-H23 lung): > 100 µM
- GI50 (BT-549 breast): > 100 µM
- TGI (BT-549 breast): > 100 µM
- GI50 (NCI/ADR-RES ovarian): > 100 µM
- TGI (NCI/ADR-RES ovarian): > 100 µM
- GI50 (UACC-257 melanoma): > 100 µM
- TGI (UACC-257 melanoma): > 100 µM
- GI50 (RPMI-8226 leukemia): > 100 µM
- TGI (RPMI-8226 leukemia): > 100 µM
- GI50 (SNB-19 CNS): > 100 µM
- TGI (SNB-19 CNS): > 100 µM
- GI50 (HT29 colon): > 100 µM
- TGI (HT29 colon): > 100 µM
- GI50 (HCT-15 colon): > 100 µM
- TGI (HCT-15 colon): > 100 µM
- GI50 (K-562 leukemia): > 100 µM
- TGI (K-562 leukemia): > 100 µM
- GI50 (OVCAR-3 ovarian): > 100 µM
- TGI (OVCAR-3 ovarian): > 100 µM
- GI50 (NCI-H522 lung): > 100 µM
- TGI (NCI-H522 lung): > 100 µM
- GI50 (SNB-75 CNS): 8.24 µM
- TGI (SNB-75 CNS): > 100 µM
- GI50 (SW-620 colon): > 100 µM
- TGI (SW-620 colon): > 100 µM
- GI50 (OVCAR-4 ovarian): > 100 µM
- TGI (OVCAR-4 ovarian): > 100 µM
- GI50 (LOX IMVI melanoma): > 100 µM
- TGI (LOX IMVI melanoma): > 100 µM
- GI50 (786-0 renal): > 100 µM
- TGI (786-0 renal): > 100 µM
- GI50 (HOP-62 NSCLC): > 100 µM
- TGI (HOP-62 NSCLC): > 100 µM
- GI50 (HCT-116 colon): > 100 µM
- TGI (HCT-116 colon): > 100 µM
- GI50 (IGROV1 ovarian): > 100 µM
- TGI (IGROV1 ovarian): > 100 µM
- GI50 (MALME-3M melanoma): > 100 µM
- TGI (MALME-3M melanoma): > 100 µM
- GI50 (MOLT-4 leukemia): 3.82 µM
- TGI (MOLT-4 leukemia): 19.1 µM
- GI50 (M14 melanoma): > 100 µM
- TGI (M14 melanoma): > 100 µM
- GI50 (EKVX NSCLC): > 100 µM
- TGI (EKVX NSCLC): > 100 µM
- GI50 (UO-31 renal): > 100 µM
- TGI (UO-31 renal): > 100 µM
- GI50 (HS 578T breast): > 100 µM
- TGI (HS 578T breast): > 100 µM
- GI50 (TK-10 renal): > 100 µM
- TGI (TK-10 renal): > 100 µM
- GI50 (CAKI-1 renal): > 100 µM
- TGI (CAKI-1 renal): > 100 µM
- GI50 (MDA-MB-231 breast): > 100 µM
- TGI (MDA-MB-231 breast): > 100 µM
- GI50 (OVCAR-8 ovarian): > 100 µM
- TGI (OVCAR-8 ovarian): > 100 µM
- GI50 (KM12 colon): > 100 µM
- TGI (KM12 colon): > 100 µM
- GI50 (CCRF-CEM leukemia): > 100 µM
- TGI (CCRF-CEM leukemia): > 100 µM
- GI50 (SK-OV-3 ovarian): 20.8 µM
- TGI (SK-OV-3 ovarian): > 100 µM
- GI50 (UACC-62 melanoma): > 100 µM
- TGI (UACC-62 melanoma): > 100 µM
- GI50 (DU-145 prostate): > 100 µM
- TGI (DU-145 prostate): > 100 µM
- GI50 (SF-539 CNS): > 100 µM
- TGI (SF-539 CNS): > 100 µM
- GI50 (SN12C renal): > 100 µM
- TGI (SN12C renal): > 100 µM
- GI50 (PC-3 prostate): > 100 µM
- TGI (PC-3 prostate): > 100 µM
- GI50 (ACHN renal): > 100 µM
- TGI (ACHN renal): > 100 µM
